# According to the NIST ThermoML archive (doi:10.1021/je300938w):
# Numbers after ± are expanded uncertainties.
# Assay: wn = mass fraction of the nth substance listed
# Conditions: 323.15 K; 101 kPa; Liquid; Vibrating tube method; w1 = 0.1
row,SMILES,mass density [kg/m3]
1,CC(O)CN (configuration not stated) [1-amino-2-propanol] + O,989.197 ± 0.052
2,CC(O)CNCC(C)O (configuration not stated) [N-(2-hydroxypropyl)-2-hydroxy-1-propanamine] + O,993.722 ± 0.052
3,OCCNCCO [diethanolamine] + O,999.439 ± 0.042

# Same assay, conditions: 323.15 K; 101 kPa; Liquid; Vibrating tube method; w1 = 0.15
row,SMILES,mass density [kg/m3]
1,CC(O)CN (configuration not stated) [1-amino-2-propanol] + O,989.197 ± 0.064
2,CC(O)CNCC(C)O (configuration not stated) [N-(2-hydroxypropyl)-2-hydroxy-1-propanamine] + O,996.497 ± 0.063
3,OCCNCCO [diethanolamine] + O,1004.85 ± 0.045

# Same assay, conditions: 323.15 K; 101 kPa; Liquid; Vibrating tube method; w1 = 0.2
row,SMILES,mass density [kg/m3]
1,CC(O)CN (configuration not stated) [1-amino-2-propanol] + O,989.338 ± 0.08
2,CC(O)CNCC(C)O (configuration not stated) [N-(2-hydroxypropyl)-2-hydroxy-1-propanamine] + O,999.106 ± 0.078
3,OCCNCCO [diethanolamine] + O,1010.35 ± 0.048

# Same assay, conditions: 323.15 K; 101 kPa; Liquid; Vibrating tube method; w1 = 0.25
row,SMILES,mass density [kg/m3]
1,CC(O)CN (configuration not stated) [1-amino-2-propanol] + O,989.679 ± 0.099
2,CC(O)CNCC(C)O (configuration not stated) [N-(2-hydroxypropyl)-2-hydroxy-1-propanamine] + O,1001.86 ± 0.098
3,OCCNCCO [diethanolamine] + O,1016 ± 0.052

# Same assay, conditions: 328.15 K; 101 kPa; Liquid; Concentric cylinders viscometry; w1 = 0.05
row,SMILES,viscosity [mPa·s]
1,CC(O)CN (configuration not stated) [1-amino-2-propanol] + O,0.6112 ± 0.0061
2,CC(O)CNCC(C)O (configuration not stated) [N-(2-hydroxypropyl)-2-hydroxy-1-propanamine] + O,0.6407 ± 0.0062
3,OCCNCCO [diethanolamine] + O,0.6017 ± 0.0061

# Same assay, conditions: 328.15 K; 101 kPa; Liquid; Concentric cylinders viscometry; w1 = 0.1
row,SMILES,viscosity [mPa·s]
1,CC(O)CN (configuration not stated) [1-amino-2-propanol] + O,0.6988 ± 0.0064
2,CC(O)CNCC(C)O (configuration not stated) [N-(2-hydroxypropyl)-2-hydroxy-1-propanamine] + O,0.7357 ± 0.0065
3,OCCNCCO [diethanolamine] + O,0.6969 ± 0.0063

# Same assay, conditions: 328.15 K; 101 kPa; Liquid; Concentric cylinders viscometry; w1 = 0.15
row,SMILES,viscosity [mPa·s]
1,CC(O)CN (configuration not stated) [1-amino-2-propanol] + O,0.8113 ± 0.0068
2,CC(O)CNCC(C)O (configuration not stated) [N-(2-hydroxypropyl)-2-hydroxy-1-propanamine] + O,0.9053 ± 0.007
3,OCCNCCO [diethanolamine] + O,0.7836 ± 0.0065

# Same assay, conditions: 328.15 K; 101 kPa; Liquid; Concentric cylinders viscometry; w1 = 0.2
row,SMILES,viscosity [mPa·s]
1,CC(O)CN (configuration not stated) [1-amino-2-propanol] + O,0.943 ± 0.0073
2,CC(O)CNCC(C)O (configuration not stated) [N-(2-hydroxypropyl)-2-hydroxy-1-propanamine] + O,1.052 ± 0.0076
3,OCCNCCO [diethanolamine] + O,0.9519 ± 0.007

# Same assay, conditions: 328.15 K; 101 kPa; Liquid; Concentric cylinders viscometry; w1 = 0.25
row,SMILES,viscosity [mPa·s]
1,CC(O)CN (configuration not stated) [1-amino-2-propanol] + O,1.102 ± 0.008
2,CC(O)CNCC(C)O (configuration not stated) [N-(2-hydroxypropyl)-2-hydroxy-1-propanamine] + O,1.278 ± 0.0087
3,OCCNCCO [diethanolamine] + O,1.141 ± 0.0075

# Same assay, conditions: 328.15 K; 101 kPa; Liquid; Vibrating tube method; w1 = 0.05
row,SMILES,mass density [kg/m3]
1,CC(O)CN (configuration not stated) [1-amino-2-propanol] + O,986.722 ± 0.045
2,CC(O)CNCC(C)O (configuration not stated) [N-(2-hydroxypropyl)-2-hydroxy-1-propanamine] + O,988.852 ± 0.045
3,OCCNCCO [diethanolamine] + O,991.746 ± 0.044

# Same assay, conditions: 328.15 K; 101 kPa; Liquid; Vibrating tube method; w1 = 0.1
row,SMILES,mass density [kg/m3]
1,CC(O)CN (configuration not stated) [1-amino-2-propanol] + O,986.682 ± 0.053
2,CC(O)CNCC(C)O (configuration not stated) [N-(2-hydroxypropyl)-2-hydroxy-1-propanamine] + O,991.224 ± 0.053
3,OCCNCCO [diethanolamine] + O,996.992 ± 0.043

# Same assay, conditions: 328.15 K; 101 kPa; Liquid; Vibrating tube method; w1 = 0.15
row,SMILES,mass density [kg/m3]
1,CC(O)CN (configuration not stated) [1-amino-2-propanol] + O,986.564 ± 0.065
2,CC(O)CNCC(C)O (configuration not stated) [N-(2-hydroxypropyl)-2-hydroxy-1-propanamine] + O,993.882 ± 0.064
3,OCCNCCO [diethanolamine] + O,1002.36 ± 0.044

# Same assay, conditions: 328.15 K; 101 kPa; Liquid; Vibrating tube method; w1 = 0.2
row,SMILES,mass density [kg/m3]
1,CC(O)CN (configuration not stated) [1-amino-2-propanol] + O,986.546 ± 0.081
2,CC(O)CNCC(C)O (configuration not stated) [N-(2-hydroxypropyl)-2-hydroxy-1-propanamine] + O,996.358 ± 0.079
3,OCCNCCO [diethanolamine] + O,1007.78 ± 0.047

# Same assay, conditions: 328.15 K; 101 kPa; Liquid; Vibrating tube method; w1 = 0.25
row,SMILES,mass density [kg/m3]
1,CC(O)CN (configuration not stated) [1-amino-2-propanol] + O,986.711 ± 0.1
2,CC(O)CNCC(C)O (configuration not stated) [N-(2-hydroxypropyl)-2-hydroxy-1-propanamine] + O,998.953 ± 0.097
3,OCCNCCO [diethanolamine] + O,1013.36 ± 0.051

# Same assay, conditions: 333.15 K; 101 kPa; Liquid; Concentric cylinders viscometry; w1 = 0.05
row,SMILES,viscosity [mPa·s]
1,CC(O)CN (configuration not stated) [1-amino-2-propanol] + O,0.5696 ± 0.006
2,CC(O)CNCC(C)O (configuration not stated) [N-(2-hydroxypropyl)-2-hydroxy-1-propanamine] + O,0.5833 ± 0.006
3,OCCNCCO [diethanolamine] + O,0.5596 ± 0.0059

# Same assay, conditions: 333.15 K; 101 kPa; Liquid; Concentric cylinders viscometry; w1 = 0.1
row,SMILES,viscosity [mPa·s]
1,CC(O)CN (configuration not stated) [1-amino-2-propanol] + O,0.647 ± 0.0062
2,CC(O)CNCC(C)O (configuration not stated) [N-(2-hydroxypropyl)-2-hydroxy-1-propanamine] + O,0.6793 ± 0.0063
3,OCCNCCO [diethanolamine] + O,0.643 ± 0.0062

# Same assay, conditions: 333.15 K; 101 kPa; Liquid; Concentric cylinders viscometry; w1 = 0.15
row,SMILES,viscosity [mPa·s]
1,CC(O)CN (configuration not stated) [1-amino-2-propanol] + O,0.75 ± 0.0066
2,CC(O)CNCC(C)O (configuration not stated) [N-(2-hydroxypropyl)-2-hydroxy-1-propanamine] + O,0.8324 ± 0.0068
3,OCCNCCO [diethanolamine] + O,0.7178 ± 0.0064

# Same assay, conditions: 333.15 K; 101 kPa; Liquid; Concentric cylinders viscometry; w1 = 0.2
row,SMILES,viscosity [mPa·s]
1,CC(O)CN (configuration not stated) [1-amino-2-propanol] + O,0.8659 ± 0.007
2,CC(O)CNCC(C)O (configuration not stated) [N-(2-hydroxypropyl)-2-hydroxy-1-propanamine] + O,0.9512 ± 0.0073
3,OCCNCCO [diethanolamine] + O,0.8673 ± 0.0068

# Same assay, conditions: 333.15 K; 101 kPa; Liquid; Concentric cylinders viscometry; w1 = 0.25
row,SMILES,viscosity [mPa·s]
1,CC(O)CN (configuration not stated) [1-amino-2-propanol] + O,0.9934 ± 0.0076
2,CC(O)CNCC(C)O (configuration not stated) [N-(2-hydroxypropyl)-2-hydroxy-1-propanamine] + O,1.145 ± 0.0082
3,OCCNCCO [diethanolamine] + O,1.037 ± 0.0073
